# Measured values from patent US7906133B2, “Optimized dosing for drug coated stents” (Boston Scientific Scimed, Inc., priority 2002, dated 2011).
# Legend:
# [1] = in vitro release studies involving an aqueous environment (FIG. 2); type: physicochemical; conditions: dose 1.0 micrograms/mm^2
# Excerpt: (§1) Using the 1.0 micrograms/mm^2 dose as an exemplary embodiment, the effects of release rate were investigated. Metallic stents were coated with paclitaxel in a styrene-isobutylene based block copolymer carrier with the weight percent of paclitaxel in the carrier varying from approximately 8.8 to about 35%. The dose of drug applied to the stents was kept at 1.0 micrograms/mm^2, and the total drug dose was held constant by varying total coating weight.
# [2] = biological response as a function of release rate from paclitaxel coated stent (FIGS. 2a-2c); type: in vivo; conditions: dose 1.0 micrograms/mm^2
# Excerpt: FIG. 2 and FIGS. 2a-2c illustrate the difference in biological response resulting from the difference in release rate from a paclitaxel coated stent.
# as §1
# healthy porcine arteries = conditions: dosing of approximately 1.0 micrograms/mm^2 in a polymer coating
# Excerpt: Paclitaxel coated metallic stents of various doses were implanted into healthy porcine arteries to determine the effect of dosage on biological response. Dosages used were approximately 4.0, 2.0, 1.0, and 0.6 micrograms per square millimeter of the stent surface area, corresponding to approximate total dosages of 345, 175, 85, and 50 micrograms per stent. The paclitaxel was contained within a styrene-isobutylene based block copolymer applied to the stent struts.
# [3] = weight fraction less than about 35% in polymer carrier
smiles,measurement,setting,value
CC(=O)O[C@H]1C(=O)[C@@]2(C)[C@H]([C@H](OC(=O)c3ccccc3)[C@]3(O)C[C@H](OC(=O)[C@H](O)[C@@H](NC(=O)c4ccccc4)c4ccccc4)C(C)=C1C3(C)C)[C@]1(OC(C)=O)CO[C@@H]1C[C@@H]2O [paclitaxel],paclitaxel released within two days,[1]; 8.8% weight fraction in styrene-isobutylene based block copolymer carrier,about 2 micrograms
same,paclitaxel released within two days,[1]; 35% weight fraction in styrene-isobutylene based block copolymer carrier,approximately 45 micrograms
same,release profile over time,[1]; all curves in FIG. 2 (weight fractions 8.8 to 35%),"relatively rapid release rate over the first few days, followed by a slower, sustained release over up to about two weeks"
same,paclitaxel released within ten days,[1]; [3],less than 60 micrograms
same,paclitaxel released within two days,[1]; [3],less than 45 micrograms
same,fibrin accumulation,[2]; fastest release rate (FIG. 2a),noticeable fibrin accumulation
same,fibrin accumulation,[2]; slower release rates (FIGS. 2b and 2c),did not result in this effect
same,safety and efficacy,healthy porcine arteries,superior safety and efficacy
